Some test systems named below: A498 renal; CAKI-1 renal; HCT-15 colon; K-562 leukemia; MDA-MB-435; MOLT-4 leukemia; SF-268 CNS; SK-MEL-5 melanoma; T-47D breast; U251 CNS.
Holding throughout (assay): NCI tumour cell line growth inhibition, 48 h

In PubChem BioAssay (NCI) one finds TGI data, which are given here for eight compounds.

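Dose response: 5 concentrations. Exposure: 48 h. Format: 96-well plates. Endpoint: linear interpolation; highest concentration if not reached. TGI: total growth inhibition.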

On to `Cc1ccc(-c2nc3n(c2/C=N\N=C(N)N)CCS3)cc1`, for which the TGI is 30.5 µM in the experiment with A498 renal; 34 µM with CAKI-1 renal; 31.8 µM in the experiment on HCT-15 colon; 44.2 µM in the experiment on K-562 leukemia; 28.9 µM in the experiment with MDA-MB-435; > 100 µM with MOLT-4 leukemia. Besides, the TGI in the experiment on SF-268 CNS stood at 29.3 µM; in the experiment with SK-MEL-5 melanoma it was 27.2 µM; in the experiment with T-47D breast, 29 µM; with U251 CNS, 28.4 µM.
Regarding `COc1cc(C(c2cc(OC)c(OC)c(OC)c2)N2C(=O)CCC2C(=O)O)cc(OC)c1OC` (stereo not given), the TGI in the experiment on A498 renal, with CAKI-1 renal, in the experiment with HCT-15 colon, in the experiment on K-562 leukemia, in the experiment with MDA-MB-435 and in the experiment with MOLT-4 leukemia was > 100 µM each time. The TGI in the experiment with SF-268 CNS, with SK-MEL-5 melanoma, in the experiment on T-47D breast and with U251 CNS was > 100 µM throughout.
`CCOC(=S)SC/C(=N\OC(C)(C)OC)c1ccccc1`: the TGI in the experiment on A498 renal is > 100 µM; in the experiment on CAKI-1 renal, > 100 µM; in the experiment on HCT-15 colon, > 100 µM; in the experiment with K-562 leukemia, 56 µM; in the experiment on MDA-MB-435, 65.7 µM; in the experiment on MOLT-4 leukemia, 65.2 µM. The TGI with SF-268 CNS is > 100 µM; with SK-MEL-5 melanoma, > 100 µM; with T-47D breast it was 63.1 µM; in the experiment on U251 CNS, > 100 µM.
In the case of `CCOC(=O)C1CCCC1S(=O)(=O)c1ccc(C)cc1` (stereo not given), the TGI in the experiment on A498 renal, with CAKI-1 renal, with HCT-15 colon, with K-562 leukemia, in the experiment on MDA-MB-435 and in the experiment with MOLT-4 leukemia was > 100 µM in each case. The TGI in the experiment on SF-268 CNS, in the experiment with SK-MEL-5 melanoma, with T-47D breast and with U251 CNS was > 100 µM in each case.
As for `CN(C)Cc1cc(C(=O)/C=C/c2c(F)cccc2Cl)cc(CN(C)C)c1O`, the TGI in the experiment with A498 renal stood at 21 µM; with CAKI-1 renal, 25.3 µM; in the experiment on HCT-15 colon, 19.1 µM; in the experiment with K-562 leukemia, 26.8 µM; with MDA-MB-435, 38.2 µM; in the experiment on MOLT-4 leukemia, 66.1 µM. The TGI in the experiment with SF-268 CNS amounted to 23.5 µM; with SK-MEL-5 melanoma it was 29.2 µM; in the experiment on T-47D breast, 33.4 µM; with U251 CNS, 28.9 µM.
As to `Nc1nc(SCc2ccccc2[N+](=O)[O-])c2[nH]cnc2n1`, the TGI with A498 renal is 48.3 µM; in the experiment on CAKI-1 renal, > 100 µM; with HCT-15 colon it was > 100 µM; with K-562 leukemia it was > 100 µM; in the experiment with MDA-MB-435, > 100 µM; with MOLT-4 leukemia, > 100 µM. Also, the TGI was > 84.6 µM in the experiment with SF-268 CNS, 49.1 µM in the experiment with SK-MEL-5 melanoma, 74.1 µM in the experiment with T-47D breast and > 100 µM in the experiment on U251 CNS.
Turning to `Cc1ccc(N2C(=O)C(O)=C(C(=O)C(C)(C)C)C2c2ccc([N+](=O)[O-])cc2)cc1` (stereo not given), the TGI came out at 68.9 µM with A498 renal; 16.5 µM with CAKI-1 renal; 47.4 µM with HCT-15 colon; 85.2 µM in the experiment with K-562 leukemia; 44.7 µM in the experiment with MDA-MB-435; 31.5 µM in the experiment with MOLT-4 leukemia. The TGI in the experiment on SF-268 CNS is 47.8 µM; with SK-MEL-5 melanoma, 30 µM; with T-47D breast, 52.5 µM; in the experiment with U251 CNS, > 100 µM.
Regarding `O=C(OCc1c(-c2ccccc2)nn(-c2ccccc2)c1COC(=O)Oc1ccccc1)Oc1ccccc1`, the TGI in the experiment with A498 renal, in the experiment with CAKI-1 renal, in the experiment on HCT-15 colon, in the experiment with K-562 leukemia, with MDA-MB-435 and in the experiment on MOLT-4 leukemia was > 100 µM throughout. The TGI in the experiment with SF-268 CNS, in the experiment on SK-MEL-5 melanoma, in the experiment with T-47D breast and in the experiment on U251 CNS was > 100 µM throughout.
